Assays:
Assay in all cases: relative viability (nuclei count vs DMSO), 5 days (fraction); higher = more cells survive
[1] = compound: COc1cc2nc(N3CCCN(C)CC3)nc(NC3CCN(Cc4ccccc4)CC3)c2cc1OC + CC(C)C[C@H](NC(=O)[C@H](Cc1ccccc1)NC(=O)c1cnccn1)B(O)O [Bortezomib] (partner 0.002 µM)
In short: (§1)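 One day after seeding in 1536-well plates, lung cancer cell lines were dosed by pin tool. Dosing was either single-drug or a fixed anchor-drug dose plus five library-drug doses (not always all listed) in √10 steps. After 5 days, nuclei were stained in one fix-and-stain step and counted on 4× images, and relative viability is the nuclei count of treated wells over that of vehicle wells, given as the median of duplicate plates.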

[2] = compound: COc1cc2nc(N3CCCN(C)CC3)nc(NC3CCN(Cc4ccccc4)CC3)c2cc1OC + O=C(CCCCCCC(=O)Nc1ccccc1)NO [Vorinostat] (partner 1 µM)
In short: as §1

AZD6482 + Phenformin = compound: Cc1cc([C@@H](C)Nc2ccccc2C(=O)O)c2nc(N3CCOCC3)cc(=O)n2c1 [AZD6482] + N=C(N)NC(=N)NCCc1ccccc1 [Phenformin] (partner 250 µM)
In short: as §1

AZD6482 + AZD7762 = compound: Cc1cc([C@@H](C)Nc2ccccc2C(=O)O)c2nc(N3CCOCC3)cc(=O)n2c1 [AZD6482] + NC(=O)Nc1cc(-c2cccc(F)c2)sc1C(=O)N[C@H]1CCCNC1 [AZD7762] (partner 0.2 µM)
In short: as §1

Cell Line | relative viability ([1]; first compound 0.2 µM) | relative viability ([1]; first compound 0.6325 µM) | relative viability ([1]; first compound 2 µM) | relative viability ([1]; first compound 6.325 µM) | relative viability ([2]; first compound 0.2 µM) | relative viability ([2]; first compound 0.6325 µM) | relative viability ([2]; first compound 2 µM) | relative viability ([2]; first compound 6.325 µM) | relative viability (AZD6482 + Phenformin; first compound 0.08 µM) | relative viability (AZD6482 + Phenformin; first compound 0.253 µM) | relative viability (AZD6482 + Phenformin; first compound 0.8 µM) | relative viability (AZD6482 + Phenformin; first compound 2.53 µM) | relative viability (AZD6482 + Phenformin; first compound 8 µM) | relative viability (AZD6482 + AZD7762; first compound 0.08 µM) | relative viability (AZD6482 + AZD7762; first compound 0.253 µM) | relative viability (AZD6482 + AZD7762; first compound 0.8 µM) | relative viability (AZD6482 + AZD7762; first compound 2.53 µM) | relative viability (AZD6482 + AZD7762; first compound 8 µM)
HOP-62 | 0.623 | 0.869 | 0.855 | 0.469 | 0.658 | 0.366 | 0.638 | 0.435 | 0.679 | 0.733 | 0.745 | 0.577 | 0.707 | 0.577 | 0.626 | 0.706 | 0.526 | 0.761
CAL-12T | 0.996 | 1.32 | 1.05 | 0.833 | 0.558 | 0.626 | 0.925 | 0.767 | 0.615 | 0.517 | 0.568 | 0.336 | 0.418 | 0.686 | 0.647 | 0.677 | 0.468 | 0.665
NCI-H1755 | 1 | 0.965 | 0.922 | 0.88 | 0.777 | 0.67 | 0.759 | 0.573 | 0.525 | 0.576 | 0.542 | 0.427 | 0.41 | 0.463 | 0.417 | 0.453 | 0.344 | 0.311

Reference: the supplement of paper PMC10307832
